Laboratory results as given in BindingDB's records for doi:10.1021/jm00109a029 (Research Biochemicals, 1991).

Experiment: Compound was evaluated for inhibition of specifically bound [3H]- cocaine (2.7 nM) against Dopamine transporter in cynomolgus monkeys

`COC(=O)C1C2CCC(C[C@@H]1c1ccc(F)cc1)N2` (stereo partly specified) showed an IC50 of 36 nM.
